Assay results published in patent US12029738B2, “Antiproliferative compounds and methods of use thereof” (Celgene Corporation, priority 2017, dated 2024).

Experiments:
[1] = in vivo; details: male, CD-IGS, rat, po
Experimental: 7-Day Exploratory Toxicology Studies in Male Rats. Methods. Male CD-IGS rats (n=5/group for toxicologic assessment; n=4/group for toxicokinetic assessment) were dosed once daily by oral gavage (10 mL/kg) with vehicle (0.5% HPMC/0.25% Tween-80 in 50 mM citrate, pH 2.6-2.8) or test articles (Compound A or Compound 1) at 100, 300 or 1000 mg/kg/day for 7 consecutive days. Blood samples for toxicokinetics were collected on Days 1 and 7. […] Body weight was recorded at randomization, prior to dosing on Days 1-7 and prior to necropsy. Samples for hematology and serum chemistry analyses were collected on Day 8, approximately 24 h after the last dose. Rats were euthanized on Day 8 for necropsy. Anatomic pathology evaluation consisted of gross observation, organ weight and histopathologic examination of select tissues.

[2] = tested on: H929-1051 cells; experiment: Cell apoptosis assay (Caspase-3 live cell imaging); format: cell-based, human
Source text: FIG. 1A and FIG. 1B. (FIG. 1A) Change in apoptosis induction, as measured by area under the curve of Caspase 3 fold induction (aka apoptosis index) over time in lenalidomide resistant H929-1051 cells. Abscissa: log nM (compound), ordinate: apoptosis index. The lines of best fit are a 3-parameter logistic equation calculated in GraphPad Prism. (FIG. 1B) The area under the curve of the concentration-response curves for Compound 1 and Compound A in H929-1051 cells were used to compare the compounds' ability to induce apoptosis after a 6 h exposure and then dilution resulting in about a 20-fold reduction of compound concentration.
Cell Apoptosis Assays: The ability of the compounds to induce apoptosis was assessed in selected MM cell lines at the time points and compound concentrations indicated. As a marker of apoptosis, the level of Caspase-3 activity was measured in MM cells using live cell imaging. To image suspension cells, 96-well plates were coated with fibronectin so cells would adhere and lie flat on the bottom of the plate. Cells were added to 96-well plates using a Multidrop Combi Reagent Dispenser (Thermo Scientific, Waltham, MA) the night before compound addition. […] Cleavage of the Caspase-3 enzyme substrate and cellular confluence in each well was detected via imaging at 10× on the IncuCyte ZOOM System every 4-6 h for 5 days. […]
Compound 1 Induced Apoptosis in Multiple Myeloma Cell Lines. […] To determine the ability of compounds to induce apoptosis and to characterize kinetically the onset of this process, Caspase-3 induction was measured over time in lenalidomide-resistant, H929-1051 cells (FIG. 1A and FIG. 1B). H929-1051 cells were incubated with the compounds at concentrations of 1 nM, 10 nM, 100 nM and 1000 nM and apoptosis was assessed over time. […] Next, the area under the curve (AUC) was calculated for each concentration and used to generate the concentration-response curves for each compound. This provided quantitative evidence of the ability of Compound 1 to induce apoptosis in H929-1051.

`N#Cc1ccc(N2CCN(Cc3ccc(COc4cccc5c4CN(C4CCC(=O)NC4=O)C5=O)cc3)CC2)c(F)c1` (racemic) [Compound 1, 4-(4-(4-(((2-(2,6-dioxopiperidin-3-yl)-1-oxoisoindolin-4-yl)oxy)methyl)benzyl)piperazin-1-yl)-3-fluorobenzonitrile] showed an AUC(0-t) ([1]; 100 mg/kg/day) of 143 µM·h, an AUC(0-t) ([1]; 300 mg/kg/day) of 514 µM·h and an AUC(0-t) ([1]; 1000 mg/kg/day) of 1220 µM·h. For the same compound, the “dose at which minimal decreases in body weight gain were observed” value ([1]; 7 days) was no less than 300 mg/kg, the “time of near maximal apoptosis induction” value ([2]; 1-1000 nM) was roughly 72 h and the “time at which apoptosis induction begins” value ([2]; 1-1000 nM, all concentrations) was “around 48 h”. The “apoptotic induction (total AUC) compared to Compound A” value ([2]; 6 h exposure then about 20-fold dilution, relative to Compound A) was 126%.
